In patent US20240277698A1, “METHODS OF USING ALDOSTERONE SYNTHASE INHIBITORS” (CINCOR PHARMA, INC., priority 2021, published 2024):

Assay: MAD study: safety (adverse events, vital signs, ECG, laboratory values, body weight)
Assay type: in vivo, human
Conditions: for tolerability: once daily for 10 days
Method: (§1) Safety was assessed throughout the study based on AEs, physical examinations, weight measurements, electrocardiograms (ECGs), orthostatic vital sign assessments, and clinical laboratory evaluations. In order to thoroughly assess any potential effect of (R)-compound 1 on QT interval, continuous ECG recordings were also performed, starting approximately 1 hour before dosing, and continuing for approximately 24 hours after dosing on Days 1 and 10.
as §1, with “is” for “was”, “ECGs,” for “electrocardiograms (ECGs), orthostatic”, “sign (including orthostatic)” for “sign”, “performed” for “performed,”, “dosing” for “dosing,”, “10. If cardiodynamic analyses are undertaken, 12-lead ECGs will be extracted at predefined time points paired with PK samples.” for “10.”

[1] = 0.5 mg, normal salt diet, N = 9
[2] = 1.5 mg, normal salt diet, N = 9
[3] = 2.5 mg, normal salt diet, N = 6
[4] = all dose levels including placebo, treatment period
[5] = all subjects receiving (R)-compound 1

## CCC(=O)N[C@@H]1CCCc2c(-c3ccc4c(c3)CCC(=O)N4C)cncc21 [(R)-Compound 1, (R)—N-(4-(1-methyl-2-oxo-1,2,3,4-tetrahydroquinolin-6-yl)-5,6,7,8-tetrahydroisoquinolin-8-yl)propionamide]
0.5 mg NS, N = 9
  Any TEAE, % of subjects: (11.1) %
  Any TEAE, number of subjects: 1
  Related TEAE, % of subjects: (11.1) %
  Related TEAE, number of subjects: 1
[1]
  Subjects with any AE: 1 (11.1) n (%)
  Subjects with any TEAE: 1 (11.1) n (%)
  Subjects with any TEAE by maximum severity: Mild: 1 (11.1) n (%)
  Subjects with any TEAE by maximum severity: Moderate: 0 (0.0) n (%)
  Subjects with any TEAE by maximum severity: Severe: 0 (0.0) n (%)
  Subjects with any TEAE leading to death: 0 (0.0) n (%)
  Subjects with any TEAE leading to discontinuation: 0 (0.0) n (%)
  Subjects with any study drug-related TEAE: 1 (11.1) n (%)
  Subjects with any study drug-related TEAE by maximum severity: Mild: 1 (11.1) n (%)
  Subjects with any study drug-related TEAE by maximum severity: Moderate: 0 (0.0) n (%)
  Subjects with any study drug-related TEAE by maximum severity: Severe: 0 (0.0) n (%)
  Subjects with any study drug-related TEAE leading to discontinuation: 0 (0.0) n (%)
  Subjects with any study drug-related treatment-emergent SAE: 0 (0.0) n (%)
  Subjects with any treatment-emergent SAE: 0 (0.0) n (%)
1.5 mg NS, N = 9
  Any TEAE, % of subjects: (11.1) %
  Any TEAE, number of subjects: 1
  Related TEAE, % of subjects: (0) %
  Related TEAE, number of subjects: 0
[2]
  Subjects with any AE: 1 (11.1) n (%)
  Subjects with any TEAE: 1 (11.1) n (%)
  Subjects with any TEAE by maximum severity: Mild: 1 (11.1) n (%)
  Subjects with any TEAE by maximum severity: Moderate: 0 (0.0) n (%)
  Subjects with any TEAE by maximum severity: Severe: 0 (0.0) n (%)
  Subjects with any TEAE leading to death: 0 (0.0) n (%)
  Subjects with any TEAE leading to discontinuation: 0 (0.0) n (%)
  Subjects with any study drug-related TEAE: 0 (0.0) n (%)
  Subjects with any study drug-related TEAE by maximum severity: Mild: 0 (0.0) n (%)
  Subjects with any study drug-related TEAE by maximum severity: Moderate: 0 (0.0) n (%)
  Subjects with any study drug-related TEAE by maximum severity: Severe: 0 (0.0) n (%)
  Subjects with any study drug-related TEAE leading to discontinuation: 0 (0.0) n (%)
  Subjects with any study drug-related treatment-emergent SAE: 0 (0.0) n (%)
  Subjects with any treatment-emergent SAE: 0 (0.0) n (%)
2.5 mg LS, N = 9
  Any TEAE, % of subjects: (33.3) %
  Any TEAE, number of subjects: 3
  Related TEAE, % of subjects: (22.2) %
  Related TEAE, number of subjects: 2
2.5 mg NS, N = 6
  Any TEAE, % of subjects: (50) %
  Any TEAE, number of subjects: 3
  Related TEAE, % of subjects: (33.3) %
  Related TEAE, number of subjects: 2
2.5 mg, low salt diet, N = 9
  Subjects with any AE: 3 (33.3) n (%)
  Subjects with any TEAE: 3 (33.3) n (%)
  Subjects with any TEAE by maximum severity: Mild: 3 (33.3) n (%)
  Subjects with any TEAE by maximum severity: Moderate: 0 (0.0) n (%)
  Subjects with any TEAE by maximum severity: Severe: 0 (0.0) n (%)
  Subjects with any TEAE leading to death: 0 (0.0) n (%)
  Subjects with any TEAE leading to discontinuation: 0 (0.0) n (%)
  Subjects with any study drug-related TEAE: 2 (22.2) n (%)
  Subjects with any study drug-related TEAE by maximum severity: Mild: 2 (22.2) n (%)
  Subjects with any study drug-related TEAE by maximum severity: Moderate: 0 (0.0) n (%)
  Subjects with any study drug-related TEAE by maximum severity: Severe: 0 (0.0) n (%)
  Subjects with any study drug-related TEAE leading to discontinuation: 0 (0.0) n (%)
  Subjects with any study drug-related treatment-emergent SAE: 0 (0.0) n (%)
  Subjects with any treatment-emergent SAE: 0 (0.0) n (%)
[3]
  Subjects with any AE: 3 (50.0) n (%)
  Subjects with any TEAE: 3 (50.0) n (%)
  Subjects with any TEAE by maximum severity: Mild: 3 (50.0) n (%)
  Subjects with any TEAE by maximum severity: Moderate: 0 (0.0) n (%)
  Subjects with any TEAE by maximum severity: Severe: 0 (0.0) n (%)
  Subjects with any TEAE leading to death: 0 (0.0) n (%)
  Subjects with any TEAE leading to discontinuation: 0 (0.0) n (%)
  Subjects with any study drug-related TEAE: 2 (33.3) n (%)
  Subjects with any study drug-related TEAE by maximum severity: Mild: 2 (33.3) n (%)
  Subjects with any study drug-related TEAE by maximum severity: Moderate: 0 (0.0) n (%)
  Subjects with any study drug-related TEAE by maximum severity: Severe: 0 (0.0) n (%)
  Subjects with any study drug-related TEAE leading to discontinuation: 0 (0.0) n (%)
  Subjects with any study drug-related treatment-emergent SAE: 0 (0.0) n (%)
  Subjects with any treatment-emergent SAE: 0 (0.0) n (%)
5 mg LS, N = 9
  Any TEAE, % of subjects: (33.3) %
  Any TEAE, number of subjects: 3
  Related TEAE, % of subjects: (11.1) %
  Related TEAE, number of subjects: 1
5.0 mg, low salt diet, N = 9
  Subjects with any AE: 3 (33.3) n (%)
  Subjects with any TEAE: 3 (33.3) n (%)
  Subjects with any TEAE by maximum severity: Mild: 3 (33.3) n (%)
  Subjects with any TEAE by maximum severity: Moderate: 0 (0.0) n (%)
  Subjects with any TEAE by maximum severity: Severe: 0 (0.0) n (%)
  Subjects with any TEAE leading to death: 0 (0.0) n (%)
  Subjects with any TEAE leading to discontinuation: 0 (0.0) n (%)
  Subjects with any study drug-related TEAE: 1 (11.1) n (%)
  Subjects with any study drug-related TEAE by maximum severity: Mild: 1 (11.1) n (%)
  Subjects with any study drug-related TEAE by maximum severity: Moderate: 0 (0.0) n (%)
  Subjects with any study drug-related TEAE by maximum severity: Severe: 0 (0.0) n (%)
  Subjects with any study drug-related TEAE leading to discontinuation: 0 (0.0) n (%)
  Subjects with any study drug-related treatment-emergent SAE: 0 (0.0) n (%)
  Subjects with any treatment-emergent SAE: 0 (0.0) n (%)
Overall (R)-compound 1, N = 42
  Subjects with any AE: 11 (26.2) n (%)
  Subjects with any TEAE: 11 (26.2) n (%)
  Subjects with any TEAE by maximum severity: Mild: 11 (26.2) n (%)
  Subjects with any TEAE by maximum severity: Moderate: 0 (0.0) n (%)
  Subjects with any TEAE by maximum severity: Severe: 0 (0.0) n (%)
  Subjects with any TEAE leading to death: 0 (0.0) n (%)
  Subjects with any TEAE leading to discontinuation: 0 (0.0) n (%)
  Subjects with any study drug-related TEAE: 6 (14.3) n (%)
  Subjects with any study drug-related TEAE by maximum severity: Mild: 6 (14.3) n (%)
  Subjects with any study drug-related TEAE by maximum severity: Moderate: 0 (0.0) n (%)
  Subjects with any study drug-related TEAE by maximum severity: Severe: 0 (0.0) n (%)
  Subjects with any study drug-related TEAE leading to discontinuation: 0 (0.0) n (%)
  Subjects with any study drug-related treatment-emergent SAE: 0 (0.0) n (%)
  Subjects with any treatment-emergent SAE: 0 (0.0) n (%)
Total (R)-Compound 1, N = 42
  Any TEAE, % of subjects: (26.2) %
  Any TEAE, number of subjects: 11
  Related TEAE, % of subjects: (14.3) %
  Related TEAE, number of subjects: 6
[4]
  decrease in mean BW from baseline: ≤ 2 kg
  decrease in mean body mass index from baseline: < 0.65 kg/m^2
[5]
  subjects experiencing a TEAE: 11 (26.2%)
  subjects experiencing a TEAE considered related to study drug: 6 (14.3%)
  subjects experiencing dizziness: 2 (4.8%)
  subjects experiencing headache: 4 (9.5%)
  subjects experiencing postural dizziness: 3 (7.1%)
Healthy subjects
  BP as compared to placebo: no clinically significant changes
  tolerability: safe and well tolerated
human, in vivo, oral, 10 days
  all other TEAEs (presyncope, eye irritation, abdominal pain, constipation, viral infection, rhinitis, back pain, anxiety, dry throat, dysphonia), subjects each: 1 subject
mild
  reduction in glomerular filtration rate: < 15%
Multiple doses
  plasma sodium and potassium levels: Mild, dose-dependent decreases in plasma sodium levels and increases in plasma potassium levels
Healthy subjects, listed as (R)-compound 1
  tolerability: safe and well tolerated
Overall (R)-compound 1 group
  decrease in mean BMI from baseline: −0.442 kg/m^2
  decrease in mean body weight from baseline: -1.31 kg
Up to 5 mg QD for 10 days
  QTcF: no meaningful changes
